Laboratory results as given in patent US11980667B2, “Short TAT oligomers for drug delivery” (The Trustees of Columbia University in the City of New York, priority 2017, dated 2024).

What was measured:
9L glioma tumors [1] = details: IA-TCH, 1 mL of 0.5 mg/mL, 15 minutes
Experimental: In a separate experiment, 14 days post-implantation of 9L glioma tumors, eight rats were anesthetized and prepared for IA-TCH. Blood flow reduction for TCH was achieved by bolus IV injection of adenosine and esmolol that were flushed with cold saline. […] Animals were sacrificed 15 minutes after TAT injection. Brain tissue was harvested. Gross sections were imaged with multi-spectral imaging (MSI) system using a photon counting cooled fluorescence camera. A 490 nm light was used for excitation while 525 nm filter was used for imaging the emitted light.

9L glioma = assay: IA-TCH versus IV delivery: uptake by confocal microscopy imaging of frozen sections; assay type: in vivo, rat; details: n = 6
Text: (§1) Comparison of […] and IV TAT delivery. Fisher 344 rats weighing about 200 g were utilized. During initial surgery under ketamine-xylazine isoflurane anesthesia 5×10^5 9 L cells were implanted 3 mm below the skull and 2-3 mm posterior and lateral to the bregma through a 1 mm craniotomy. […] The animals were assigned separately to IV and IA-TCH groups. On the day of drug delivery, animals were sedated with isoflurane and injected with ketamine/xylazine. The tail vein was cannulated for intravenous access. Under aseptic precautions, a tracheostomy and carotid cannulation were performed. Anesthesia was maintained by mechanical ventilation with isoflurane (1.8-2.2%). Thereafter animals were turned prone on a stereotactic frame. The skull was exposed and the region of tumor implantation was shaved to transparency. A laser Doppler probe was implanted on the skull with the aid of a plastic holder to assess cerebral/tumor blood flow. Rectal temperature, pulse pleth (volume), pulse oxygen saturation, EKG, expired and inspired gas composition, brain and skin blood flow with lase Doppler were continuously monitored.
(§2) Transient cerebral hypoperfusion and fluorescein-labeled TAT monomer injection. IA injections were made during TCH by the following method. Reduction of blood flow was achieved by bolus IV injections of adenosine (2 mg) and esmolol (2 mg), and cold saline (1.5 mL at 4° C.). Typically such an intervention decreases cerebral blood flow to about 20% of the baseline. The heart rate response varies from sinus bradycardia to a sinus pause. However, physiological parameters rapidly recover within 3-5 minutes. […] For each animal, a test IA injection was done prior to the onset of hypotension to ensure delivery of the desired injection volume and the injection sequence was resumed after bolus IV injections of hypotensive drugs.
Frozen sections (10 μm thick) were imaged under a Nikon confocal microscope with 470 nm excitation. Due to the large size of the tissue sample, small sections of images were obtained and then assembled together. An adjacent section was stained with hematoxylin and eosin to confirm the size and location of the tumor. The total fluorescence in the tumor region, in the non-tumor ipsi-lateral hemisphere, and in the corresponding region contra-lateral to the tumor was quantified. The contra-lateral hemisphere was used for background correction.

9L glioma tumor = assay: In vivo uptake of TAT dimer versus monomer by IA-TCH (MSI and confocal imaging); design: species or system rat; details: dimer 0.25 mg, monomer 0.125 mg, five rats each
Experimental: An additional experiment was performed to assess the in vivo uptake of fluorescein-labeled TAT dimer by IA-TCH. About 14 days after 9L glioma tumor implantation, rats were anesthetized and prepared for TAT dimer delivery experiments. TAT dimer was conjugated with fluorescein such that its concentrations in post mortem samples could be determined immediately by multispectral imaging and confocal imaging. TAT dimer (0.25 mg) and monomer (0.125 mg) were tested using IA-TCH delivery both containing equal amounts of fluorescein were evaluated. […] Animals were sacrificed 15 minutes after TAT injection. Brain tissue was harvested.

[2] = Physiological changes during IA-TCH and IV delivery; assay type: in vivo, rat
Text: as §1, §2
Physiological parameters. Key parameters included inspired and expired gas composition, laser Doppler skin and brain/tumor blood flow, EKG for heart rate, pleth pulse, oxygen saturation, and rectal temperature which were continuously monitored. Data were analyzed at four time points: baseline, at the time of IA injection, 5 minutes after the start of injection, and at the end of the experiment. […] Immediately after sacrifice, brain tissue was harvested for imaging. All physiological data was recorded at 200 Hz by a Mac Lab data collection system.

9L glioma tumors [3] = details: four arrest cycles IA-TCH; single arrest from historical controls
Experimental: Multiple Arrest Study. 9L glioma tumors were implanted into five rats. 14 days post-implantation, the rats were anesthetized and prepared for the injections. Blood flow reduction was achieved by bolus IV injection of adenosine and esmolol that were flushed with cold saline. Four arrest cycles were used to deliver fluorescein-conjugated TAT monomer via intra-arterial injection with a 5 minute recovery period between each arrest. Animals were sacrificed 15 minutes after injection. Brain tissues were harvested an imaged using a multi-spectral imaging system using a photon counted cooled fluorescence camera. A 470 nm light was used for excitation while a 530 nm filter was used for imaging the emitted light.

Q: What does the source list for `N=C(N)NCCC[C@H](NC(=O)CNC(=O)c1ccc2c(c1)C(=O)OC21c2ccc(O)cc2Oc2cc(O)ccc21)C(=O)N[C@@H](CCCCN)C(=O)N[C@@H](CCCCN)C(=O)N[C@@H](CCCNC(=N)N)C(=O)N[C@@H](CCCNC(=N)N)C(=O)N[C@@H](CCC(N)=O)C(=O)N[C@@H](CCCNC(=N)N)C(=O)N[C@@H](CCCNC(=N)N)C(=O)N[C@@H](CCCNC(=N)N)C(=O)N1CCC[C@H]1C(=O)N1CCC[C@H]1C(=O)N[C@@H](CCC(N)=O)C(=O)N[C@@H](CCC(N)=O)C(=O)O` [fluorescein-labeled TAT monomer, 5-FAM-GRKKRRQRRR PPQQ-COOH]?
A: Concentration in the tumor versus the opposite side (9L glioma tumors [1]): 13 ×; Uptake in the tumor compared to adjacent regions (9L glioma tumors [1]): 5 ×; Contralateral fluorescence (9L glioma; IA-TCH): 161 ± 94 AU; Ipsi-lateral fluorescence (9L glioma; IA-TCH): 353 ± 76 AU; Ipsi/contralateral ratio (9L glioma; IA-TCH): 2.7 ± 1.4; Tumor fluorescence (9L glioma; IA-TCH): 1758 ± 474 AU; Tumor/contralateral ratio (9L glioma; IA-TCH): 13.8 ± 7.6; Tumor/ipsi-lateral ratio (9L glioma; IA-TCH): 4.9 ± 0.7; Contralateral fluorescence (9L glioma; IV): 205 ± 67 AU; Ipsi-lateral fluorescence (9L glioma; IV): 216 ± 65 AU; Ipsi/contralateral ratio (9L glioma; IV): 1.1 ± 0.5; Tumor fluorescence (9L glioma; IV): 528 ± 246 AU; Tumor/contralateral ratio (9L glioma; IV): 3.0 ± 1.4; Tumor/ipsi-lateral ratio (9L glioma; IV): 2.4 ± 1.1; Tumor selective delivery (9L glioma tumor): able to achieve tumor selective drug delivery; CBF ([2]; IA-TCH, 5 min): 90 ± 32 % Δbase; ETCO2 ([2]; IA-TCH, 5 min): 71 ± 17 % Δbase; HR ([2]; IA-TCH, 5 min): 273 ± 59 BMP; Isoflurane ([2]; IA-TCH, 5 min): 1.8 ± 0.8 ET %; SaO2 ([2]; IA-TCH, 5 min): 95%; Sk · BF ([2]; IA-TCH, 5 min): 104 ± 38 % Δbase; Temp ([2]; IA-TCH, 5 min): 36.6 ± 1.1 °C; CBF ([2]; IA-TCH, Base): 100 ± 0 % Δbase; ETCO2 ([2]; IA-TCH, Base): 100 ± 0 % Δbase; HR ([2]; IA-TCH, Base): 289 ± 19 BMP; Isoflurane ([2]; IA-TCH, Base): 2.2 ± 0.2 ET %; SaO2 ([2]; IA-TCH, Base): 98 ± 2%; Sk · BF ([2]; IA-TCH, Base): 100 ± 0 % Δbase; Temp ([2]; IA-TCH, Base): 37.1 ± 1.3 °C; CBF ([2]; IA-TCH, End): 81 ± 13 % Δbase; ETCO2 ([2]; IA-TCH, End): 92 ± 27 % Δbase; HR ([2]; IA-TCH, End): 310 ± 11 BMP; Isoflurane ([2]; IA-TCH, End): 2.2 ± 0.4 ET %; Sk · BF ([2]; IA-TCH, End): 92 ± 16 % Δbase; Temp ([2]; IA-TCH, End): 36.9 ± 1.1 °C; CBF ([2]; IA-TCH, Injection): 29 ± 26 % Δbase; ETCO2 ([2]; IA-TCH, Injection): 54 ± 50 % Δbase; HR ([2]; IA-TCH, Injection): 63 ± 41 BMP; Isoflurane ([2]; IA-TCH, Injection): 0.8 ± 0.9 ET %; SaO2 ([2]; IA-TCH, Injection): 92 ± 11 %; Sk · BF ([2]; IA-TCH, Injection): 18 ± 10 % Δbase; Temp ([2]; IA-TCH, Injection): 36.6 ± 1.3 °C; CBF ([2]; IV, 5 min): 73 ± 13b % Δbase; ETCO2 ([2]; IV, 5 min): 85 ± 37 % Δbase; HR ([2]; IV, 5 min): 267 ± 68 BMP; Isoflurane ([2]; IV, 5 min): 2.1 ± 0.2 ET %; SaO2 ([2]; IV, 5 min): 97 ± 4%; Sk · BF ([2]; IV, 5 min): 106 ± 28 % Δbase; Temp ([2]; IV, 5 min): 36.1 ± 0.9 °C; CBF ([2]; IV, Base): 100 ± 0 % Δbase; ETCO2 ([2]; IV, Base): 100 ± 0 % Δbase; HR ([2]; IV, Base): 267 ± 17 BMP; Isoflurane ([2]; IV, Base): 2.2 ± 0.3 ET %; SaO2 ([2]; IV, Base): 100 ± 5%; Sk · BF ([2]; IV, Base): 100 ± 0 % Δbase; Temp ([2]; IV, Base): 35.9 ± 0.9 °C; CBF ([2]; IV, End): 73 ± 12b % Δbase; ETCO2 ([2]; IV, End): 86 ± 14 % Δbase; HR ([2]; IV, End): 283 ± 10 BMP; Isoflurane ([2]; IV, End): 2.1 ± 0.3 ET %; SaO2 ([2]; IV, End): 99 ± 2%; Sk · BF ([2]; IV, End): 116 ± 30 % Δbase; Temp ([2]; IV, End): 36.5 ± 1.0 °C; CBF ([2]; IV, Injection): 122 ± 21 % Δbase; ETCO2 ([2]; IV, Injection): 75 ± 39 % Δbase; HR ([2]; IV, Injection): 274 ± 31 BMP; Isoflurane ([2]; IV, Injection): 0.4 ± 0.1 ET %; SaO2 ([2]; IV, Injection): 97 ± 4%; Sk · BF ([2]; IV, Injection): 144 ± 50a,# % Δbase; Temp ([2]; IV, Injection): 35.9 ± 0.9 °C; Deposition, multiple arrest compared to single-arrest (9L glioma tumors [3]): increases the amount of TAT deposition but also increases non-specific deposition
